Assay results as given in patent publication US5665386A, “Use of essential oils to increase bioavailability of oral pharmaceutical compounds” (priority 1995, dated 1997).
Several values for one entry are separate records, joined by “and”; a condition that tells them apart may be missing. Identical values can stand only once. Like-named read-outs stand apart in the source and are kept apart here.

System: rat cytochrome P450 3A
[1] = Table 2, 0.0001 wt. % component
[2] = Table 2, repeat 0.0001 wt. % (SD in parentheses)

SMILES	% inhibition of cyclosporine metabolism [1] [%]	% inhibition of cyclosporine metabolism (Table 2, 0.001 wt. % component) [%]	% inhibition of cyclosporine metabolism (Table 2, 0.01 wt. % component) [%]	further results
CC(C)=C1CC[C@@H](C)CC1=O [Pulegone-(R)-(+), p-Menth-4(8)-en-3-one]	-17	31	–	–
C=CC(C)(CCC=C(C)C)OC(C)=O (centres unmarked) [Linalyl Acetate, 3,7-Dimethyl-1,6-octadien-3-yl acetate]	–	55.8	100	–
CC(C)=CCCC(C)CCO (stereo not drawn) [Citronellol-(DL)-(β), 3,7-Dimethyl-6-octen-1-ol]	41	86	95	% inhibition of cyclosporine metabolism, repeat [2]: 35 (4) %
CC(=O)OC/C=C(\C)CCC=C(C)C [Geranyl Acetate, trans-3,7-Dimethyl-2,6-octadien-1-yl acetate]	–	51.5	73	–
COc1cc(CNC(=O)CCCC/C=C/C(C)C)ccc1O [Capsaicin, trans-8-Methyl-N-vanillyl-6 nonenamide]	27	68	–	–
C=CC(=C)CCC=C(C)C [Myrcene-β, 7-Methyl-3-methylene-1,6-octadiene]	0	13	–	–
C=C(C)C1CC=C(C)C(O)C1 (single isomer, unassigned) [Carveol-(-), p-Mentha-6,8-dien-2-ol]	2	60	–	–
C=C(C)[C@@H]1CC=C(C)C(=O)C1 [Carvone-(R)-(-), p-Mentha-6,8-dien-2-one]	27	69	100	–
O=C/C=C/c1ccccc1 [Cinnamic Aldehyde, trans-, 3-Phenylpropenaldehyde]	–	29.0	78	–
CC=C(C)C=CC=C(C)C [Allo Ocimene, 2,6-Dimethyl-2,4,6-octatriene]	6	22	–	–
CC(=O)N1CCN(c2ccc(OCC3COC(Cn4ccnc4)(c4ccc(Cl)cc4Cl)O3)cc2)CC1 (centres unmarked) [Ketoconazole, reference compound]	–	–	–	% inhibition of cyclosporine metabolism (Table 3, 0.000001%): 8%; % inhibition of cyclosporine metabolism (Table 3, 0.000005%): 20%; % inhibition of cyclosporine metabolism (Table 3, 0.00001%): 42%; % inhibition of cyclosporine metabolism (Table 3, 0.00005%): 100%
Cc1ccc(C(C)C)cc1O [Carvacrol, 5-isoProply-2-methylphenol]	11	93	97	–
CC1(C)[C@H]2CC[C@](C)(C2)[C@H]1O [Fenchol-(1R)-endo-(+), 1,3,3-Trimethylbicyclo [2.2.1] heptan-2-ol]	18	74	100	–
CC(C)[C@@H]1CC[C@@H](C)CC1=O [Menthone-(-), p-Menthan-3-one]	14	52	–	–
C=C1C2CCC(C2)C1(C)C (single isomer, unassigned) [Camphene-(+), 2,2-Dimethyl-3-methylenebicyclo[2.2.1]heptane]	-49	12.4	–	–
CC1=CC=C(C(C)C)CC1 [Terpinene-α, p-Mentha-1,3-diene]	-6	28	–	–
CC/C=C\CC1=C(C)CCC1=O [Jasmone, cis-, 3-Methyl-2-(2-pentenyl)-2-cyclopenten-1-one]	16.0	68	–	–
C=CC(C)(O)CCC=C(C)C (racemic) [Linalool-(±), 3,7-Dimethyl-1,6-octadien-3-ol]	41	72.0	85	% inhibition of cyclosporine metabolism, repeat [2]: -7 (9) % and -5 (2) %
C=C(C)[C@H]1CC=C(C)CC1 [Limonene-(R)-(+), p-Mentha-1,8-diene]	–	20	84	–

SMILES	% inhibition of cyclosporine metabolism [1] [%]	% inhibition of cyclosporine metabolism (Table 2, 0.001 wt. % component) [%]	% inhibition of cyclosporine metabolism (Table 2, 0.01 wt. % component) [%]	further results
CCC=CCC1C(=O)CCC1CC(=O)OC (racemic) [Methyl Jasmonate-(±), Methyl-3-oxo-2-(2-pentenyl)-cyclopentane acetate]	-27	65	–	–
C=C(C)[C@H]1CC=C(C)C(=O)C1 [Carvone-(S)-(+), p-Mentha-6,8-dien-2-one]	30	70.5	–	–
C/C=C/c1ccc(OC)cc1 [Anethole, trans-, 4-Propenylanisole]	–	53	100	–
CC12CCC(CC1=O)C2(C)C (racemic) [Camphor-(±), 1,7,7-Trimethylbicyclo [2.2.1] heptan-2-one]	–	–	–	% inhibition of cyclosporine metabolism, repeat (microsomes, pH 7.4): 53 (3) %
CC1=CCC(C(C)(C)O)CC1 (stereo not drawn) [Terpineol-α, p-Menth-1-en-8-ol]	13.4	86	100	–
CCOC(=O)/C=C/c1ccccc1 [Ethyl Cinnamate, trans-, Ethyl 3-phenylpropenoic acid]	-13	-16	–	–
CC1=CCC(O)(C(C)C)CC1 (centres unmarked) [Terpinen-4-ol, p-Menth-1-en-4-ol]	3.81	80	100	–
C=C1CC[C@H]2C[C@@H]1C2(C)C [Pinene-(1S)-(-)-β, 6,6-Dimethyl-2-methylenebicyclo[3.1.1]heptane]	-10	60	88	–
CCOc1cc(C=O)ccc1O [Ethyl Vanillin, 3-Ethoxy-4-hydroxybenzalehyde]	–	–	58	–
C=CCc1ccc(O)c(OC)c1 [Eugenol, 4-Allyl-2-methoxyphenol]	9.8	66	100	–
C=C(C)[C@@H]1CC=C(C)CC1 [Limonene-(S)-(-), p-Mentha-1,8-diene]	–	30	82.3	–
COC(=O)c1ccccc1N [Methyl Anthranilate, Methyl 2-aminobenzoate]	-7	23	–	–
C=C1CC/C=C(\C)CC[C@@H]2[C@@H]1CC2(C)C [Caryophyllene, trans-(-), β Caryophyllene]	26	85	–	–
CC(C)=CCC/C(C)=C/C=O [Citral]	44	54	99	–
CC1=CCC2C(C1)C2(C)C (centres unmarked) [Carene-3-(Δ)]	-26	34	–	–
CC1(C)C(=O)[C@]2(C)CC[C@H]1C2 [Fenchone-(1R)-(-), 1,3,3-Trimethylbicyclo [2.2.1] heptan-2-one]	14	38	–	–
CC(C)=CCC/C(C)=C/CC/C(C)=C/CO [Farnesol, trans-, trans-, 3,7,11-Trimethyl-2,6,10-dodecatrien-1-ol]	49	82	–	–
C=CCc1ccc(OC)cc1 [Estragole, 4-Allylanisole]	7	69.2	100	–
O=C(/C=C/c1ccccc1)OCc1ccccc1 [Benzyl Cinnamate, Benzyl 3-phenylpropenoic acid]	7	-45	–	–
